pEC50: −log10 of the molar value. Where two headings read alike, the source gives them in different places.
Experiments:
Human 5-HT1B receptor = molecular target: T1, Human 5-HT1B receptor (Homo sapiens, UniProt P28222); assay: Hit Hunter cAMP secondary messenger assay, Gi agonist mode; format: cell-based; details: for Curve Top (% activation) / Emax: relative to 5-HT MAX control
T1 construct: host or cells: CHO-K1 (hamster), stably transfected; cAMP Hunter cell line
Excerpt: Methods: cAMP Secondary Messenger Pathway Assay Method.
Hit Hunter® cAMP assays were used to monitor the activation of a GPCR via Gi and Gs secondary messenger signaling in a homogenous, non-imaging assay format using DiscoverX's Enzyme Fragment Complementation (EFC) with β-galactosidase (β-Gal) as the functional reporter. The enzyme is split into two complementary portions: EA for Enzyme Acceptor and ED for Enzyme Donor. ED is fused to cAMP and in the assay competes with cAMP generated by cells for binding to a cAMP-specific antibody. Active β-Gal is formed by complementation of exogenous EA to any unbound EDcAMP.
cAMP Hunter cell lines were expanded from freezer stocks according to standard procedures. Human 5-HT1B receptor-mediated cAMP signaling was evaluated in stably transfected hamster-derived CHO-K1 cells. Cells were seeded in a total volume of 20 μL into white walled, 384-well microplates and incubated at 37° C. overnight. cAMP modulation was determined using the DiscoverX HitHunter cAMP XS+ assay.
For Gi agonist determination, cells were incubated with sample in the presence of 15 mM forskolin to induce response. Media was aspirated from cells and replaced with 10 μL HBSS/10 mM Hepes. Intermediate dilution of sample stocks was performed to generate 4× sample in assay buffer. 5 μL of 4× sample plus 5 μL of 4× forskolin was added to cells and incubated at 37° C. for 30 minutes. Final assay vehicle concentration was 1%. After compound incubation, assay signal was generated through incubation with 20 μL cAMP XS+ED/CL lysis cocktail for one hour followed by incubation with 20 μL cAMP XS+EA reagent for three hours at room temperature. Microplates were read following signal generation with a PerkinElmer Envision™ instrument for chemiluminescent signal detection.
Compound activity was analyzed using CBIS data analysis suite (ChemInnovation, CA). For Gi agonist mode assays, percentage activity is calculated using the following formula: % Activity=100%×(1−(mean RLU of test sample−mean RLU of MAX control)/(mean RLU of vehicle control−mean RLU of MAX control)).
The same human 5-HT1B receptor functional agonism assay as described above was used in a separate experiment.

mice [1] = details: cited from earlier work
humans = details: cited from earlier work
rats = details: cited from earlier work
mice [2] = details: cited from earlier work; remark: listed apart in the source
[3] = tested on: female mice exposed to stress and sodium nitroprusside (SNP); assay: Stress plus sodium nitroprusside (SNP)-induced migraine mice model, von Frey facial withdrawal score; format: in vivo, C57BL/6j mice
Protocol: To evaluate the prophylactic and acute/abortive treatment effects of single administration of 5-OH-DMT to female mice exposed to stress and sodium nitroprusside (SNP) as a model of stress-primed migraine pain.
C57BL/6j mice (7-8 weeks, female) were acclimated for 1 week prior to the experiment. Mice were kept in groups of 4-5 animals per cage in a housing room with temperature maintained at 21-23° C. and 40-70% relative humidity, on a 12/12 h light:dark cycle. Chow and water were available ad libitum except during testing. […] On Day 10, von Frey testing was conducted again to confirm that mechanical withdrawal scores were similar across naïve and stress-exposed mice. Stress-exposed animals were randomized to treatment groups based on body weight and facial mechanical withdrawal score. Then, each animal was administered a 1st intraperitoneal (i.p.) injection of 5-OH-DMT (dissolved in 0.9% sterile saline and administered at 3, 10 or 30 mg/kg in a volume of 10 ml/kg) or vehicle.
On Day 11, at 24 h following the 1st injection, vehicle or 0.1 mg/kg sodium nitroprusside (SNP) was given i.p. and facial mechanical withdrawal scores were assessed 3 hours later to confirm establishment of a stress+SNP-induced hypersensitive state in Day 10 vehicle-treated animals (Groups 2-6) or, in Day 10 test article-treated […] (Groups 7-9), assess the prophylactic effect of compound administration. On Day 12, at 23 hours after vehicle or SNP injection, each animal was administered a 2nd i.p. injection of vehicle or 5-OH-DMT or sumatriptan (acute treatment positive control animals received vehicle on Day 10). One hour later, facial withdrawal scores were assessed to evaluate acute effects of treatments (Groups 2-6) or durability of prophylactic effects (Groups 7-9).
Mice were allowed to acclimate to the testing cage for 60 minutes each day before the test. To assess pain-like behaviors induced by noxious mechanical stimulation applied on the vibrissal pad (orofacial area), the mouse was placed in a small cage with a metal mesh ceiling and a wood bottom (10 cm×5 cm×5 cm). The semiparametric scoring system used to evaluate the response of the animal to the mechanical stimulation was described in detail by Vos et al. (1994). Mechanical stimulation delivered by a von Frey hair with the bending force of 0.07 g was applied bilaterally to the vibrissal pad. […] The summated score of these 8 trials was counted as the animal's response score. […]

T1 sequence (P28222 whole entry): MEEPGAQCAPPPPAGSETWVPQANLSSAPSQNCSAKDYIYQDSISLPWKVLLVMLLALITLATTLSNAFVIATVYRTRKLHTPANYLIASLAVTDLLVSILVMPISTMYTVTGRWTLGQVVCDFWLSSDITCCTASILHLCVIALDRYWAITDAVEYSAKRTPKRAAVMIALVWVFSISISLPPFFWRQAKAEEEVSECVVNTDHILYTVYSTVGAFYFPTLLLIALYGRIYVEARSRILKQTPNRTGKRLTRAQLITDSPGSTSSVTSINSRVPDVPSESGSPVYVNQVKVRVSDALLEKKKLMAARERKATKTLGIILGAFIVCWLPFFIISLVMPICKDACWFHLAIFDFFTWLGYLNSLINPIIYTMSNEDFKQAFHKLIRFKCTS

## NCCc1c[nH]c2ccc(O)cc12 [5-HT, serotonin, reference compound]
Human 5-HT1B receptor; Study #1
  Curve Top (% activation): 100.22%
Human 5-HT1B receptor; Study #2
  Curve Top (% activation): 107.54%
Human 5-HT1B receptor; first experiment (Study #1)
  agonist activity at human 5-HT1B receptors: full agonist activity
Human 5-HT1B receptor; second experiment (Study #2)
  agonist activity at human 5-HT1B receptors: full agonist activity

## COc1ccc2[nH]cc(CCN(C)C)c2c1 [5-MeO-DMT, 5-methoxy-N,N-dimethyltryptamine]
Mice [1]; indicative of in vivo 5-HT2A receptor activation
  head twitch response in mice: induces the head twitch response
Mice [1]; mice, i.p. or s.c.
  dose eliciting mouse head-twitch response: ≥ 10 mg/kg
humans; insufflation of 10 mg
  time of initial effects: 3 to 4 min
  time of termination of effects: 60 to 70 min
humans; intravenous
  dose range with psychoactive effects: 0.25 to 3.1 mg
humans; oral, after pretreatment with a monoamine oxidase inhibitor (e.g., harmaline)
  dose with psychoactive effects: 10 to 25 mg
humans; oral, encapsulated
  dose with psychoactive effects: 30 mg
humans; smoked
  dose range with psychoactive effects: 6 to 30 mg
humans; sublingual
  dose with psychoactive effects: ~10 mg
rats
  acute analgesic effects: exhibited acute analgesic effects

## CN(C)CCc1c[nH]c2ccc(O)cc12 [5-OH-DMT, 5-hydroxy-N,N-dimethyltryptamine]
Mice [1]; mice, subcutaneous
  head twitch response ED50: 15 mg/kg
humans; insufflation of 40 mg
  duration of short-lived aftereffects: up to 90 minutes
  time of initial effects: 5 min
Mice [2]
  acute anti-inflammatory and analgesic effects: exhibited acute anti-inflammatory and analgesic effects
[3]; 30 mg/kg i.p. on Day 10, 24 h before SNP, tested Day 11, 3 h after SNP (G9)
  facial hypersensitivity vs vehicle (G2), prophylactic treatment: significantly reduced facial hypersensitivity
[3]; 30 mg/kg i.p. on Day 10, tested Day 12 (G9)
  facial hypersensitivity vs vehicle (G2), durability of prophylactic effect: significantly reduced facial hypersensitivity
[3]; 30 mg/kg i.p. on Day 12, tested 1 h after injection #2 (G6)
  facial hypersensitivity vs vehicle (G2), acute treatment: significantly reduced facial hypersensitivity
Human 5-HT1B receptor
  pEC50: ≥ 9.00
Human 5-HT1B receptor; Study #1, read-out: Maximal activation (%)
  Emax: 104%
Human 5-HT1B receptor; Study #2
  Curve Top (% activation): 100.41%
Human 5-HT1B receptor; first experiment (Study #1)
  agonist activity at human 5-HT1B receptors: full agonist activity
Human 5-HT1B receptor; read-out: Maximal activation (%), Study #2
  Emax: 96.7%
Human 5-HT1B receptor; second experiment (Study #2)
  agonist activity at human 5-HT1B receptors: full agonist activity

## CNS(=O)(=O)Cc1ccc2[nH]cc(CCN(C)C)c2c1 [sumatriptan, reference compound]
[3]; sumatriptan 1 mg/kg i.p. on Day 12, tested 1 h after injection #2 (G3)
  facial hypersensitivity vs vehicle (G2), acute treatment: significantly reduced facial hypersensitivity
